# Assay results reported in patent publication US20230167073A1 (Teijin Pharma Limited, priority 2020, published 2023).
# pIC50: −log10 of the molar value.
# Target: T1, Human TRPC6 (Homo sapiens, UniProt Q9Y210)
# T1 construct: expressed in transfected cells
# T1 sequence (Q9Y210 1-931): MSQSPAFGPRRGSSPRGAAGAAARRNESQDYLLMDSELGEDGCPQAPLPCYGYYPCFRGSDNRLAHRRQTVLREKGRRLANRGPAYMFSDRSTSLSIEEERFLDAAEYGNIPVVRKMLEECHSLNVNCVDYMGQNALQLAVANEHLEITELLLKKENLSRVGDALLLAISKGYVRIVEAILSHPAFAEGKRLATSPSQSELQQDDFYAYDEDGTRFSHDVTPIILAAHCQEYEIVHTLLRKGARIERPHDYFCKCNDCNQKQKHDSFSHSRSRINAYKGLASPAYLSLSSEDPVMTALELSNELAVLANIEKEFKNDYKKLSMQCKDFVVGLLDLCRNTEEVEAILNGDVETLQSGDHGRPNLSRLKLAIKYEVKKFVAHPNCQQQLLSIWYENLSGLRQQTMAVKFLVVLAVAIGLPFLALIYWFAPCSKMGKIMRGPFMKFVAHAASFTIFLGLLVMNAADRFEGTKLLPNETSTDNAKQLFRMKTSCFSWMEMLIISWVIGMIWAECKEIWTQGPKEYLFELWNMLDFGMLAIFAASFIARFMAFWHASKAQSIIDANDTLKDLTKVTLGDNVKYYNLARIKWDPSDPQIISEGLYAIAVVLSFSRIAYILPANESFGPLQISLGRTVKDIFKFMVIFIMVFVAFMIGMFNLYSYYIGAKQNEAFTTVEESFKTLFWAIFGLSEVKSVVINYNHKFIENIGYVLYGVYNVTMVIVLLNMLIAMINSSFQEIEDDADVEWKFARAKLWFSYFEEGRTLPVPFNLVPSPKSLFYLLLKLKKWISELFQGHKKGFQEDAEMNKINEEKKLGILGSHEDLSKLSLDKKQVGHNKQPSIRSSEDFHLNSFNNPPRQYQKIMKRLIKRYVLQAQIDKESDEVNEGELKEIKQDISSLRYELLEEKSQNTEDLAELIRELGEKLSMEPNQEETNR
# Assay: Evaluation of TRPC6 channel inhibitory activity (1), FLIPR Calcium 5 Assay Kit, OAG stimulation (Compound Nos. 1-1293)
# Type: cell-based
# Settings: not given
# In short: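 Stable human TRPC6 line; fluorescent Ca2+ dye loading, then 20 min compound exposure before 30 μM OAG trigger. Peak-minus-baseline signal converted to % inhibition against untreated and unstimulated wells; potency given as pIC50 band.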
row,Compound,pIC50
1,"Cc1nc(Oc2cc(C#N)ccc2-n2cc(C3=CCNCC3)cn2)cc(C2CCCC2)n1 [Compound 221, 3-(6-cyclopentyl-2-methylpyrimidin-4-yl)oxy-4-[4-(1,2,3,6-tetrahydropyridin-4-yl)pyrazol-1-yl]benzonitrile]",6.00 to 8.00

# Same assay, conditions: Human TRPC6 stably-expressing cells, OAG 30 μM, FLIPR Calcium 5 Assay Kit; read-out: Inhibitory activity (pIC50 class) (converted)
row,IC50 [nM],Compound
1,< 10,"CC(C)Cc1cc(Oc2cc(C#N)ccc2-c2ccc(C(O)CN)cc2)n(C)n1 (stereo not drawn) [Compound 212, 4-[4-(2-amino-1-hydroxyethyl)phenyl]-3-[2-methyl-5 (2-methylpropyl)pyrazol-3-yl]oxybenzonitrile]"
2,< 10,"Cn1nc(C2CC2)cc1Oc1cc(C#N)ccc1-c1ccc(C(O)CN)cc1 (stereo not drawn) [Compound 215, 4-[4-(2-amino-1-hydroxyethyl)phenyl]-3-(5-cyclopropyl-2-methylpyrazol-3-yl)oxybenzonitrile]"
3,10 to 1000,"Cn1nc(C2CC2)cc1Oc1cc(C#N)ccc1-c1nc(C(O)CN)cs1 (stereo not drawn) [Compound 216, 4-[4-(2-amino-1-hydroxyethyl)-1,3-thiazol-2-yl]-3-(5-cyclopropyl-2-methylpyrazol-3-yl)oxybenzonitrile]"
4,> 1000,"Cn1nc(-c2ccccc2)cc1Oc1cc(C#N)ccc1-n1cc(N2CCNCC2=O)cn1 [Compound 217, 3-(2-methyl-5-phenylpyrazol-3-yl)oxy-4-[4-(2-oxopiperazin-1-yl)pyrazol-1-yl]benzonitrile]"
5,10 to 1000,"Cc1nc(Oc2cc(C#N)ccc2-c2nc([C@@H](O)CN)cs2)cc(-c2ccccc2)n1 [Compound 222, 4-[4-[(1S)-2-amino-1-hydroxyethyl]-1,3-thiazol-2-yl]-3-(2-methyl-6-phenylpyrimidin-4-yl)oxybenzonitrile]"
6,10 to 1000,"Cc1nc(Oc2cc(C#N)ccc2-c2nc([C@H](O)CN)cs2)cc(-c2ccccc2)n1 [Compound 223, 4-[4-[(1R)-2-amino-1-hydroxyethyl]-1,3-thiazol-2-yl]-3-(2-methyl-6-phenylpyrimidin-4-yl)oxybenzonitrile]"
7,10 to 1000,"Cc1nc(Oc2cc(C#N)ccc2-c2ncc(C(O)CN)s2)cc(-c2ccccc2)n1 (stereo not drawn) [Compound 224, 4-[5-(2-amino-1-hydroxyethyl)-1,3-thiazol-2-yl]-3-(2-methyl-6-phenylpyrimidin-4-yl)oxybenzonitrile]"
8,< 10,"Cn1nc(-c2ccccc2)cc1Oc1cc(C#N)ccc1-c1ncc(C(O)CN)s1 (stereo not drawn) [Compound 225, 4-[5-(2-amino-1-hydroxyethyl)-1,3-thiazol-2-yl]-3-(2-methyl-5-phenylpyrazol-3-yl)oxybenzonitrile]"
9,< 10,"Cc1cc(Oc2cc(C#N)ccc2-n2cc(C(O)CN)cn2)cc(-c2ccccc2)n1 (stereo not drawn) [Compound 226, 4-[4-(2-amino-1-hydroxyethyl)pyrazol-1-yl]-3-(2-methyl-6-phenylpyridin-4-yl)oxybenzonitrile]"
10,< 10,"CNC[C@H](O)c1cnn(-c2ccc(C#N)cc2Oc2cc(-c3ccccc3)nc(C)n2)c1 [Compound 231, 4-[4-[(1R)-1-hydroxy-2-(methylamino)ethyl]pyrazol-1-yl]-3-(2-methyl-6-phenylpyrimidin-4-yl)oxybenzonitrile]"
11,< 10,"Cc1nc(Oc2cc(C#N)ccc2-n2cc([C@@H](O)CN)cn2)cc(N2CCCC2)n1 [Compound 232, 4-[4-[(1R)-2-amino-1-hydroxyethyl]pyrazol-1-yl]-3-(2-methyl-6-pyrrolidin-1-ylpyrimidin-4-yl)oxybenzonitrile]"
12,< 10,"Cc1nc(Oc2cc(C#N)ccc2-n2cc([C@@H](O)CN)cn2)cc(N2CCCCC2)n1 [Compound 233, 4-[4-[(1R)-2-amino-1-hydroxyethyl]pyrazol-1-yl]-3-(2-methyl-6-piperidin-1-ylpyrimidin-4-yl)oxybenzonitrile]"
13,> 1000,"Cc1nc(Oc2cc(C#N)ccc2-n2cc([C@@H](O)CN)cn2)cc(N2CCC(C(C)C)CC2)n1 [Compound 234, 4-[4-[(1R)-2-amino-1-hydroxyethyl]pyrazol-1-yl]-3-[2-methyl-6-(4-propan-2-ylpiperidin-1-yl)pyrimidin-4-yl]oxybenzonitrile]"
14,10 to 1000,"Cc1nc(Oc2cc(C#N)ccc2-n2cc([C@@H](O)CN)cn2)cc(N2CCCC(C)(C)C2)n1 [Compound 235, 4-[4-[(1R)-2-amino-1 hydroxyethyl]pyrazol-1-yl]-3-[6-(3,3-dimethylpiperidin-1-yl)-2-methylpyrimidin-4-yl]oxybenzonitrile]"
15,10 to 1000,"Cc1nc(Oc2cc(C#N)ccc2-n2cc([C@@H](O)CN)cn2)cc(N2CC(F)(F)C2)n1 [Compound 236, 4-[4-[(1R)-2-amino-1-hydroxyethyl]pyrazol-1-yl]-3-[6-(3,3-difluoroazetidin-1-yl)-2-methylpyrimidin-4-yl]oxybenzonitrile]"

# Further lines, the compound ahead of its results:
row,Compound,IC50 [nM]
1,"CC(C)Cc1cc(Oc2cc(C#N)ccc2-c2ccc(CCN)cc2)n(C)n1 [Compound 211, 4-[4-(2-aminoethyl)phenyl]-3-[2-methyl-5-(2-methylpropyl)pyrazol-3-yl]oxybenzonitrile]",< 10
2,"Cn1nc(C2CC2)cc1Oc1cc(C#N)ccc1-c1ccc(CCN)cc1 [Compound 213, 4-[4-(2-aminoethyl)phenyl]-3-(5-cyclopropyl-2-methylpyrazol-3-yl)oxybenzonitrile]",< 10
3,"Cn1nc(C2CC2)cc1Oc1cc(C#N)ccc1-c1ccc(C(=O)CN)cc1 [Compound 214, 4-[4-(2-aminoacetyl)phenyl]-3-(5-cyclopropyl-2-methylpyrazol-3-yl)oxybenzonitrile]",10 to 1000
4,"Cn1nc(-c2ccccc2)cc1Oc1cc(C#N)ccc1-n1cc(N2CCCNCC2=O)cn1 [Compound 218, 3-(2-methyl-5-phenylpyrazol-3-yl)oxy-4-[4-(2-oxo-1,4-diazepan-1-yl)pyrazol-1-yl]benzonitrile]",> 1000
5,"Cn1nc(-c2ccccc2)cc1Oc1cc(C#N)ccc1-n1cc(N2CCNCCC2=O)cn1 [Compound 219, 3-(2-Methyl-5-phenylpyrazol-3-yl)oxy-4-[4-(7-oxo-1,4-diazepan-1-yl)pyrazol-1-yl]benzonitrile]",10 to 1000
6,"Cn1nc(C(F)(F)F)cc1Oc1cc(C#N)ccc1-n1cc(N2CCNCC2=O)cn1 [Compound 220, 3-[2-methyl-5-(trifluoromethyl)pyrazol-3-yl]oxy-4-[4-(2-oxopiperazin-1-yl)pyrazol-1-yl]benzonitrile]",> 1000
7,"Cn1nc(C2CCOCC2)cc1Oc1cc(C#N)ccc1-c1ccc(CCN)cn1 [Compound 227, 4-[5-(2-aminoethyl)pyridin-2-yl]-3-[2-methyl-5-(oxan-4-yl)pyrazol-3-yl]oxybenzonitrile]",< 10
8,"CC(C)Cc1cc(Oc2cc(C#N)ccc2-c2ccc(CCN)cn2)n(C)n1 [Compound 228, 4-[5-(2-aminoethyl)pyridin-2-yl]-3-[2-methyl-5-(2-methylpropyl)pyrazol-3-yl]oxybenzonitrile]",< 10
9,"CC(C)c1cc(Oc2cc(C#N)ccc2-c2ccc(CCN)cn2)n(C)n1 [Compound 229, 4-[5-(2-aminoethyl)pyridin-2-yl]-3-(2-methyl-5-propan-2-ylpyrazol-3-yl)oxybenzonitrile]",< 10
10,"CCCc1cc(Oc2cc(C#N)ccc2-c2ccc(CCN)cn2)n(C)n1 [Compound 230, 4-[5-(2-aminoethyl)pyridin-2-yl]-3-(2-methyl-5-propylpyrazol-3-yl)oxybenzonitrile]",< 10
11,"Cn1nc(C2CCC2)cc1Oc1cc(C#N)ccc1-c1ccc(CCN)cn1 [Compound 237, 4-[5-(2-aminoethyl)pyridin-2-yl]-3-(5-cyclobutyl-2-methylpyrazol-3-yl)oxybenzonitrile]",< 10
